Data published in publication PMC10819771 (Pharmaceuticals, 2023).

How the values were obtained:
[1] = system: FdxT (DNA, hairpin, hexaethylene glycol linker between 10 and 11) TATAGCTATATATAGCTATA; assay: FRET melting; conditions: 10 mM K+, 90 mM Li+; 10 mM lithium cacodylate pH 7.2; 0.2 µM DNA, 2 µM compound
HeLa = assay: MTT antiproliferative assay, HeLa; assay type: cell-based, human; conditions: for IC50: Homo sapiens, HeLa, MTT, 72 h, cervical cancer cells, read-out: IC50 Values (μM) ± SEM HeLa; for Selectivity Index HEK293/HeLa: IC50 HEK293 / IC50 HeLa
Procedure: (§1) The growth-inhibitory effects of the compounds were determined by MTT (3-(4,5-dimethylthiazol-2-yl)-2,5-diphenyltetrazolium bromide) assay on selected cell lines, including HeLa and SiHa (cervical cancers), MDA-MB-231 and MCF-7 (breast cancers), and A2780 ovarian cancer cells. All cell lines were purchased from the European Collection of Cell Cultures (Salisbury, UK) except SiHa, which was obtained from the American Tissue Culture Collection (Manassas, VA, USA). The cells were kept in minimum essential medium supplemented with 10% fetal bovine serum, 1% non-essential amino acids, and 1% penicillin-streptomycin-amphotericin-B at 37 °C in a humidified atmosphere containing 5% CO2. Media and supplements were obtained from Lonza Group Ltd., (Basel, Switzerland). Cancer cells were seeded onto 96-well plates (5000 cells/well), after an overnight incubation the test compounds were added in six concentrations (0.1, 0.3, 1.0, 3.0, 10.0, 30.0 µM) and incubated for 72 h under cell-culture condition. After the incubation, 20 μL of 5 mg/mL MTT solution was added to each well and incubated for a further 4 h. The medium was removed, and the precipitated formazan crystals were dissolved in DMSO for 30 min under shaking at 37 °C. The absorbance was measured at 545 nm with a microplate reader. Untreated cells were included as controls. Calculations were performed by means of the GraphPad Prism 5.01 software (GraphPad Software Inc., San Diego, CA, USA). At least two independent determinations were performed with 5 parallel wells for each condition.

A2780 = assay: MTT antiproliferative assay, A2780; assay type: cell-based, human; conditions: for IC50: Homo sapiens, A2780, MTT, 72 h, ovarian cancer cells, read-out: IC50 Values (μM) ± SEM A2780; for Selectivity Index HEK293/A2780: IC50 HEK293 / IC50 A2780
Procedure: as §1

MCF-7 = assay: MTT antiproliferative assay, MCF-7; assay type: cell-based, human; conditions: for IC50: Homo sapiens, MCF7, 72 h, MTT, 72 h, breast cancer cells, read-out: IC50 Values (μM) ± SEM MCF-7; for Selectivity Index HEK293/MCF-7: IC50 HEK293 / IC50 MCF-7
Procedure: as §1

FK-RAST = assay: FRET-melting, FK-RAST; assay type: binding; conditions: ligand 2 μM, DNA 0.2 μM, 10 mM KCl, 90 mM LiCl, pH 7.2
Procedure: (§2) FRET-melting experiments were conducted on a Stratagene MX3005P (Thermo Fisher Scientific, Illkirch-Graffenstaden, France) real-time PCR equipment in 96-well plates on the DNA sequences reported in Table 4. Experiments were performed in 10 mM lithium cacodylate buffer (pH 7.2) and either 10 mM KCl and 90 mM LiCl (FK-RAST, FBCL-2T, F21T, and FdxT) or 1 mM KCl and 99 mM LiCl (Fc-MYCT) concentrations, depending on the Tm of the G4s alone. The DNA concentration was 0.2 µM. […] Data are presented as an average of three independent measurements, each conducted in duplicate conditions (λexc = 492 nm, λem = 516 nm, T interval = 25–95 °C, ramp: 25 °C for 5 min, then 1 °C/min, measurements every 1 °C, 8× magnification of the fluorescence signal).

MDA-MB-231 = assay: MTT antiproliferative assay, MDA-MB-231; assay type: cell-based, human; conditions: for IC50: Homo sapiens, MDA-MB-231, 72 h, MTT, 72 h, breast cancer cells, read-out: IC50 Values (μM) ± SEM MDA-MB-231; for Selectivity Index HEK293/MDA-MB-231: IC50 HEK293 / IC50 MDA-MB-231
Procedure: as §1

FdxT = assay: FRET-melting, duplex control FdxT; assay type: binding; conditions: ligand 2 μM, DNA 0.2 μM, 10 mM KCl, 90 mM LiCl, pH 7.2, hairpin duplex
Procedure: as §2

HEK293 = assay: MTT proliferation test on normal cells, HEK293; assay type: cell-based; conditions: Homo sapiens, normal epithelial cells, cytotoxicity, read-out: IC50 Values (μM) ± SEM HEK293
Procedure: The MTT proliferation test on the epithelial cell line HEK293 was performed as pre-viously described. The 50% inhibiting concentrations (IC50) were determined by linear regression analysis.

K562 = assay: MTS cell proliferation assay, K562; assay type: cell-based, human; conditions: for IC50: Homo sapiens, K562, 72 h, MTS, 3-day incubation, leukemia cells, read-out: IC50 Values (μM) ± SEM K562; for Selectivity Index HEK293/K562: IC50 HEK293 / IC50 K562
Procedure: The human leukemic cell line K562 was grown in RPMI 1640 medium (Life Technology-Invitrogen by Thermo Fisher Scientific, Saint-Aubin, France) supplemented with 10% fetal calf serum (FCS), antibiotics (100 U/mL penicillin, 100 µg/mL streptomycin), and L-glutamine, (Eurobio, Les Ulis, France) at 37 °C, 5% CO2 in air. The MTS cell proliferation assay (Promega, Charbonnières-les-Bains, France) is a colorimetric assay system, which measures the transformation of a tetrazolium component (MTS) into formazan produced by the mitochondria of viable cells. Cells were washed twice in PBS (Phosphate Buffer Saline) and plated in quadruplicate into microtiter-plate wells in 100 μL culture media with or without our various compounds at increasing concentrations (0, 1, 5, 10, 20, and 50 μM) for 1, 2, and 3 days. After 3 h of incubation at 37 °C with 20 μL MTS/well, the plates were read using an ELISA microplate reader (Thermo, Electrocorporation, Waltham, MA, USA) at 490 nm. The amount of color produced was directly proportional to the number of viable cells. The results are expressed as the concentrations inhibiting cell growth by 50% after a 3-day incubation period. The 50% cytotoxic concentrations (CC50) were determined by linear regression analysis, expressed in μM ± SD (Microsoft Excel).

telomerase = assay: Telomerase activity (TRAP assay) in MCF-7 cell lysates; assay type: biochemical, human; conditions: MCF-7 cell lysate; for telomerase activity compared to control: 5 µM compound
Procedure: Telomerase activity was assessed using the TRAP assay kit (TRAPeze® RT telomerase detection kit, Chemicon, Millipore Sigma S7700, Merck KGaA, Darmstadt, Germany) according to manufacturer’s instructions with some modifications. Briefly, […] in CHAPS lysis buffer and proteins were extracted. Protein extracts and various concentrations of compounds (0 to 5 µM) were used to extend a synthetic telomeric DNA using an enzymatic reaction (30 °C during 20 min), followed by a quantification of telomeric DNA using a telomeric PCR amplification: 95 °C for 3 min, 2 cycles of 95 °C for 20 s, and 49 °C for 20 s, followed by 30 cycles 95 °C for 20 s and 60 °C for 20 s with signal acquisition) in a Stratagene Mx3005P system (Agilent, Les Ulis, France) using specific telomeric PCR quantitative primers. Each sample was measured in technical duplicate with control DNA. For each drug and each dilution, we used biological triplicate of cell lysates.

Fc-MYCT = assay: FRET-melting, Fc-MYCT; assay type: binding; conditions: ligand 2 μM, DNA 0.2 μM, K+ conditions, pH 7.2
Procedure: as §2

SiHa = assay: MTT antiproliferative assay, SiHa; assay type: cell-based, human; conditions: for IC50: Homo sapiens, SiHa, MTT, 72 h, cervical cancer cells, read-out: IC50 Values (μM) ± SEM SiHa; for Selectivity Index HEK293/SiHa: IC50 HEK293 / IC50 SiHa
Procedure: as §1

FBCL-2T = assay: FRET-melting, FBCL-2T; assay type: binding; conditions: ligand 2 μM, DNA 0.2 μM, 10 mM KCl, 90 mM LiCl, pH 7.2
Procedure: as §2

[2] = system: human telomeric sequence F21T; assay: FRET-melting, F21T; assay type: binding; conditions: ligand 2 μM, DNA 0.2 μM, 10 mM KCl, 90 mM LiCl, pH 7.2
Procedure: as §2

| Structure (SMILES) | IC50 (HeLa) [µM] | Selectivity Index HEK293/HeLa (HeLa) | IC50 (A2780) [µM] | Selectivity Index HEK293/A2780 (A2780) | IC50 (MCF-7) [µM] | Selectivity Index HEK293/MCF-7 (MCF-7) | ΔT1/2 (°C) FK-RAST (FK-RAST) [°C] | IC50 (MDA-MB-231) [µM] | Selectivity Index HEK293/MDA-MB-231 (MDA-MB-231) | ΔT1/2 (°C) FdxT (FdxT) [°C] | IC50 (HEK293) [µM] | IC50 (K562) [µM] | Selectivity Index HEK293/K562 (K562) | telomerase activity compared to control (telomerase) | ΔT1/2 (°C) Fc-MYCT (Fc-MYCT) [°C] | IC50 (SiHa) [µM] | Selectivity Index HEK293/SiHa (SiHa) | ΔT1/2 (°C) FBCL-2T (FBCL-2T) [°C] | ΔT1/2 (°C) F21T [2] [°C] | further results |
| --- | --- | --- | --- | --- | --- | --- | --- | --- | --- | --- | --- | --- | --- | --- | --- | --- | --- | --- | --- | --- |
| CN1CCN(CCCNCc2ccc(-c3cc(-c4ccc(CNCCCN5CCN(C)CC5)cc4)c4cc(-c5ccccc5)ccc4n3)cc2)CC1 |  |  |  |  |  |  |  |  |  |  |  |  |  |  |  |  |  |  |  | ΔT1/2 [1]: 0.1 ± 0.2 °C |
| CN(C)CCCNCc1ccc(-c2nc(-c3ccc(CNCCCN(C)C)cc3)c3ccc(-c4ccccc4)cc3n2)cc1 [Compound 12f, 2,4-bis{4-[(3-dimethylaminopropyl)aminomethyl]phenyl}-7-phenylquinazoline] | 1.51 ± 0.09 | >19.9 | 0.79 ± 0.19 | >38.0 | 0.58 ± 0.08 | >51.7 | 20.1 ± 0.3 | 0.55 ± 0.01 | >54.5 | 2.4 ± 0.1 | > 30 | 14 ± 0.3 | >2.14 | reduced drastically | 9.1 ± 1.4 | 0.75 ± 0.1 | >40.0 | 12.6 ± 0.6 |  |  |
| CN(C)CCCCNCc1ccc(-c2nc(-c3ccc(CNCCCCN(C)C)cc3)c3ccc(-c4ccccc4)cc3n2)cc1 [Compound 12g, 2,4-bis{4-[(4-dimethylaminobutyl)aminomethyl]phenyl}-7-phenylquinazoline] | 0.95 ± 0.51 | 4.19 | 1.74 ± 0.89 | 2.29 | 0.63 ± 0.35 | 6.32 | 24.3 ± 1.1 | 0.67 ± 0.35 | 5.94 | 3.2 ± 0.3 | 3.98 ± 0.12 | 12 ± 0.3 | 0.33 |  | 14.7 ± 0.8 | 0.52 ± 0.22 | 7.65 | 17.5 ± 0.6 | 19.2 ± 1.0 |  |
| CN1CCN(CCCNCc2ccc(-c3nc(-c4ccc(CNCCCN5CCN(C)CC5)cc4)c4ccc(-c5ccccc5)cc4n3)cc2)CC1 [Compound 12i] | 1.15 ± 0.36 | >26.1 | 1.14 ± 0.16 | >26.3 | 0.67 ± 0.31 | >44.8 | 20.2 ± 0.5 | 0.52 ± 0.02 | >57.7 | 1.9 ± 0.1 | > 30 | 23 ± 0.5 | >1.30 | reduced drastically | 12.5 ± 0.7 | 0.92 ± 0.24 | >32.6 | 14.8 ± 0.7 | 18.6 ± 0.2 | concentration from which MCF-7 telomerase activity is decreased (telomerase; 0 to 5 µM tested): 5 µM |
| CN1CCN(CCCCNCc2ccc(-c3nc(-c4ccc(CNCCCCN5CCN(C)CC5)cc4)c4ccc(-c5ccccc5)cc4n3)cc2)CC1 [Compound 12j, 2,4-bis{4-[(4-(4-methylpiperazin-1-yl)butyl)aminomethyl]phenyl}-7-phenylquinazoline] | 1.48 ± 0.8 | 3.31 | 1.44 ± 0.1 | 3.40 | 0.58 ± 0.25 | 8.45 | 18.7 ± 1.6 | 1.1 ± 0.15 | 4.45 | 1.5 ± 0.4 | 4.9 ± 0.15 | 8 ± 0.2 | 0.61 |  | 14.1 ± 0.3 | 0.33 ± 0.08 | 14.85 | 9.8 ± 1.0 | 14.5 ± 1.2 |  |
